From US20200255478A1, “NOVEL COMPOUNDS ACTIVATING THE NRF2 PATHWAY” (Almirall, S.A., priority 2017, published 2020) come the findings set out here.

By IC50 is commonly meant the concentration that gives 50% inhibition.

Starred links: 1 amine or outer side, 2 acyl side, 3 side chain; linkers in the order of their positions; H or OH if unused. Positions of bridges follow the written chain, without caps; N, C: chain ends. Non-standard residues stand in square brackets, D forms with d. Residues, ends and D or L forms follow the SMILES beside them. *: point of attachment. mXylylene = c1cc(C[*:1])cc(C[*:2])c1; oXylylene = c1ccc(C[*:2])c(C[*:1])c1; X6 = c1ccc2nc(C[*:2])c(C[*:1])nc2c1; Stearoyl = CCCCCCCCCCCCCCCCCC(=O)*; βAla = NCCC(=O)O Where only a bound is given, the exact number is not on record here.

Keap1-Maltose Binding Protein (MBP tag), sequence (Q14145 whole entry): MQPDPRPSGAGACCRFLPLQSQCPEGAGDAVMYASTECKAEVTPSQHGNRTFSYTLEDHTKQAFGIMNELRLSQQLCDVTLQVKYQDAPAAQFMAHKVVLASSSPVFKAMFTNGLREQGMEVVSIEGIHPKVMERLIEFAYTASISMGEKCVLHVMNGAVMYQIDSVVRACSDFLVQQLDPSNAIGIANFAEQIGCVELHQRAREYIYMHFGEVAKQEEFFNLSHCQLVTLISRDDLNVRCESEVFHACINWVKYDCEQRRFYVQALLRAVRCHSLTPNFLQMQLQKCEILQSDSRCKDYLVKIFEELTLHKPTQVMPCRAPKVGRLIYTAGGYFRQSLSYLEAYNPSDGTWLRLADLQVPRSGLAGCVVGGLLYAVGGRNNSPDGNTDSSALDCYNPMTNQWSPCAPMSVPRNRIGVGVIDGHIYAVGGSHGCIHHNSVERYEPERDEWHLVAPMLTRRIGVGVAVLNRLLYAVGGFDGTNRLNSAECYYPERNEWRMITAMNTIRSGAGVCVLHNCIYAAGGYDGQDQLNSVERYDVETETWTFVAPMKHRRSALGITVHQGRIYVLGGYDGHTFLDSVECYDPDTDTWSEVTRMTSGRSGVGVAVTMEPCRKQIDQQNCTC

One assay has as its target Keap1-Maltose Binding Protein (MBP tag) (Homo sapiens, UniProt Q14145). In words: Nrf2-Keap1 HTRF (TR-FRET) binding assay: displacement of biotinylated ETGE peptide from Keap1-MBP.
Details: not given
For orientation: In TR-FRET formats the signal depends on donor and acceptor labels being close together.
The molecule `CC(C)C[C@@H]1NC(=O)[C@@H]2CCCN2C(=O)[C@H](CC(C)C)NC(=O)[C@@H]2CSCc3cccc(c3)CSC[C@H](NC(=O)[C@H](CCC(N)=O)NC1=O)C(=O)N[C@@H](CC(=O)O)C(=O)N[C@@H](CCC(=O)O)C(=O)N[C@@H](CCC(=O)O)C(=O)N[C@@H]([C@@H](C)O)C(=O)NCC(=O)N[C@@H](CCC(=O)O)C(=O)N2` [Example 4, {[&^1Leu-Gln-Cys(&^2)-Asp-Glu-Glu-Thr-Gly-Glu-Cys(&^3)-Leu-Pro&^1][&^2(1,3-phenylenediyl)dimethylene&^3]}] (cyclo(CDEETGECLPLQ); linker 1-8 via mXylylene) yielded an IC50 of under 1 nM.

`CC(=O)N[C@H]1C[C@H]2C(=O)N[C@@H](CCC(N)=O)C(=O)N[C@H]3CSCc4ccccc4CSC[C@H](NC(=O)[C@H](CCC(=O)O)NC(=O)CNC(=O)[C@H]([C@@H](C)O)NC(=O)[C@H](CCC(=O)O)NC(=O)[C@@H]4CCCN4C(=O)[C@H](CC(=O)O)NC3=O)C(=O)N[C@@H](CC(C)C)C(=O)N3CCC[C@@H]3C(=O)N2C1` [Example 64, {[&^1Pro((4S)-NH-Acetyl)-Gln-Cys(&^2)-Asp-Pro-Glu-Thr-Gly-Glu-Cys(&^3)-Leu-D-Pro&^1][&^2(1,2-phenylenediy1)dimethylene&^3]}] registered an IC50 of under 1 nM.

With `CCCCCCCCCCCCCCCC(=O)N[C@H]1C[C@H]2C(=O)N[C@@H](CCC(N)=O)C(=O)N[C@H]3CSCc4ccccc4CSC[C@H](NC(=O)[C@H](CCC(=O)O)NC(=O)CNC(=O)[C@H]([C@@H](C)O)NC(=O)[C@H](CCC(=O)O)NC(=O)[C@@H]4CCCN4C(=O)[C@H](CC(=O)O)NC3=O)C(=O)N[C@@H](CC(C)C)C(=O)N3CCC[C@@H]3C(=O)N2C1` [Example 83, {[&^1Pro((4S)-NH-Palmitoyl)-Gln-Cys(&^2)-Asp-Pro-Glu-Thr-Gly-Glu-Cys(&^3)-Leu-D-Pro&^1][&^2(1,2-phenylenediyl)dimethylene&^3]}], the IC50 was under 1 nM.

Consider `CCCCCCCCCCCCCCCCCCC(=O)N[C@H]1C[C@H]2C(=O)N[C@@H](CCC(N)=O)C(=O)N[C@H]3CSCc4ccccc4CSC[C@H](NC(=O)[C@H](CCC(=O)O)NC(=O)CNC(=O)[C@H]([C@@H](C)O)NC(=O)[C@H](CCC(=O)O)NC(=O)[C@@H]4CCCN4C(=O)[C@H](CC(=O)O)NC3=O)C(=O)N[C@@H](CC(C)C)C(=O)N3CCC[C@@H]3C(=O)N2C1` [Example 98, {[&^1Pro((4S)-NH-Nonadecanoyl)-Gln-Cys(&^2)-Asp-Pro-Glu-Thr-Gly-Glu-Cys(&^3)-Leu-D-Pro&^1][&^2(1,2-phenylenediyl)dimethylene&^3]}], for which the IC50 is under 1 nM.

Still in this assay, the particulars now being: HTRF (TR-FRET); displacement of ETGE-biotin from Keap1-MBP; values banded into grades; read-out: Binding (IC50) ETGE-Keap1.
With `CC(C)C[C@H](NC(=O)[C@H](CC(C)C)NC(=O)[C@@H]1CSCc2ccccc2CSC[C@H](NC(=O)[C@H](CC(C)C)NC(=O)[C@@H](N)CC(C)C)C(=O)N[C@@H](CC(=O)O)C(=O)N2CCC[C@H]2C(=O)N[C@@H](CCC(=O)O)C(=O)N[C@@H]([C@@H](C)O)C(=O)NCC(=O)N[C@@H](CCC(=O)O)C(=O)N1)C(=O)NCCC(=O)N[C@@H](CCCNC(=N)N)C(=O)N[C@@H](CCCCN)C(=O)N[C@@H](CCCCN)C(=O)N[C@@H](CCCNC(=N)N)C(=O)N[C@@H](CCCNC(=N)N)C(=O)N[C@@H](CCC(N)=O)C(=O)N[C@@H](CCCNC(=N)N)C(=O)N[C@@H](CCCNC(=N)N)C(=O)N[C@@H](CCCNC(=N)N)C(N)=O` [Example 60], the IC50 is under 1 nM.

As to `CC(C)C[C@H](NC(=O)[C@@H]1CSCc2ccccc2CSC[C@H](NC(=O)[C@H](CCC(N)=O)NC(=O)[C@@H](N)CC(C)C)C(=O)N[C@@H](CC(=O)O)C(=O)N[C@@H](C)C(=O)N[C@@H](CCC(=O)O)C(=O)N[C@@H]([C@@H](C)O)C(=O)NCC(=O)N[C@@H](CCC(=O)O)C(=O)N1)C(=O)N1CCC[C@H]1C(=O)NCCC(=O)N[C@@H](CCCNC(=N)N)C(=O)N[C@@H](CCCCN)C(=O)N[C@@H](CCCCN)C(=O)N[C@@H](CCCNC(=N)N)C(=O)N[C@@H](CCCNC(=N)N)C(=O)N[C@@H](CCC(N)=O)C(=O)N[C@@H](CCCNC(=N)N)C(=O)N[C@@H](CCCNC(=N)N)C(=O)N[C@@H](CCCNC(=N)N)C(N)=O` [Example 18], the IC50 lay in the range of 1 to 100 nM.

Consider `CC(C)C[C@H](NC(=O)[C@@H]1CSCc2cccc(c2)CSC[C@H](NC(=O)[C@H](CCC(N)=O)NC(=O)[C@@H](N)CC(C)C)C(=O)N[C@@H](CC(=O)O)C(=O)N[C@@H](C)C(=O)N[C@@H](CCC(=O)O)C(=O)N[C@@H]([C@@H](C)O)C(=O)NCC(=O)N[C@@H](CCC(=O)O)C(=O)N1)C(=O)N1CCC[C@H]1C(=O)NCCC(=O)N[C@@H](Cc1ccc(O)cc1)C(=O)N[C@@H](C)C(=O)N[C@@H](CCCNC(=N)N)C(=O)N[C@@H](C)C(=O)N[C@@H](C)C(=O)N[C@@H](C)C(=O)N[C@@H](CCCNC(=N)N)C(=O)N[C@@H](CCC(N)=O)C(=O)N[C@@H](C)C(=O)N[C@@H](CCCNC(=N)N)C(=O)N[C@@H](C)C(N)=O` [Example 15] (H-LQCDAETGECLP[βAla]YARAAARQARA-NH2; linker 3-10 via mXylylene), for which the IC50 lay within 1 to 100 nM.

For `CCCCCCCCCCCCCCCCCC(=O)NCCC(=O)N[C@@H](CC(C)C)C(=O)N[C@@H](CCC(N)=O)C(=O)N[C@H]1CSCc2cccc(c2)CSC[C@@H](C(=O)N[C@@H](CC(C)C)C(=O)N2CCC[C@H]2C(=O)O)NC(=O)[C@H](CCC(=O)O)NC(=O)CNC(=O)[C@H]([C@@H](C)O)NC(=O)[C@H](CCC(=O)O)NC(=O)[C@H](C)NC(=O)[C@H](CC(=O)O)NC1=O` [Example 39, {[Stearyl-βAla-Leu-Gln-Cys(&^1)-Asp-Ala-Glu-Thr-Gly-Glu-Cys(&^2)-Leu-Pro-OH][&^1(1,3-phenylenediyl)dimethylene&^2]}] ({Stearoyl-βAla}-LQCDAETGECLP-OH; linker 3-10 via mXylylene), the IC50 was in the range of 1 to 100 nM.

In the case of `CCCCCCCCCCCCCCCCCC(=O)NCCC(=O)N[C@@H](CC(C)C)C(=O)N[C@@H](CCC(N)=O)C(=O)N[C@H]1CSCc2nc3ccccc3nc2CSC[C@@H](C(=O)N[C@@H](CC(C)C)C(=O)N2CCC[C@H]2C(N)=O)NC(=O)[C@H](CCC(=O)O)NC(=O)CNC(=O)[C@H]([C@@H](C)O)NC(=O)[C@H](CCC(=O)O)NC(=O)[C@@H]2CCCN2C(=O)[C@H](CC(=O)O)NC1=O` [Example 61, {[Stearyl-βAla-Leu-Gln-Cys(&^1)-Asp-Pro-Glu-Thr-Gly-Glu-Cys(&^2)-Leu-Pro-NH2][&^1(quinoxaline)2,3-diyldimethylene&^2]}] ({Stearoyl-βAla}-LQCDPETGECLP-NH2; linker 3-10 via X6), the IC50 lay in the range of 1 to 100 nM.

As to `CCCCCCCCCCCCCCCCCC(=O)N[C@H]1C[C@H]2C(=O)N[C@@H](CCC(N)=O)C(=O)N[C@H]3CSCC4(COC4)CSC[C@H](NC(=O)[C@H](CCC(=O)O)NC(=O)CNC(=O)[C@H]([C@@H](C)O)NC(=O)[C@H](CCC(=O)O)NC(=O)[C@@H]4CSCN4C(=O)[C@H](CC(=O)O)NC3=O)C(=O)N[C@@H](CC(C)C)C(=O)N3CCC[C@@H]3C(=O)N2C1` [Example 97, {[&^1Pro((4S)-NH-Stearyl)-Gln-Cys(&^2)-Asp-Thz-Glu-Thr-Gly-Glu-Cys(&^3)-Leu-D-Pro&^1][&^2(3,3-oxetanediyl)dimethylene&^3]}], the IC50 is under 1 nM.

As to `Cc1cc(C)c2c(C)c1CSC[C@@H](C(=O)N[C@@H](CC(C)C)C(=O)N[C@@H](CC(C)C)C(=O)NCCC(=O)N[C@@H](CCCNC(=N)N)C(=O)N[C@@H](CCCCN)C(=O)N[C@@H](CCCCN)C(=O)N[C@@H](CCCNC(=N)N)C(=O)N[C@@H](CCCNC(=N)N)C(=O)N[C@@H](CCC(N)=O)C(=O)N[C@@H](CCCNC(=N)N)C(=O)N[C@@H](CCCNC(=N)N)C(=O)N[C@@H](CCCNC(=N)N)C(N)=O)NC(=O)[C@H](CCC(=O)O)NC(=O)CNC(=O)[C@H]([C@@H](C)O)NC(=O)[C@H](CCC(=O)O)NC(=O)[C@@H]1CCCN1C(=O)[C@H](CC(=O)O)NC(=O)[C@@H](NC(=O)[C@H](CC(C)C)NC(=O)[C@@H](N)CC(C)C)CSC2` [Example 59], the IC50 is under 1 nM.

`CC(=O)N[C@H]1CSCc2ccccc2CSC[C@@H](C(N)=O)NC(=O)[C@H](CCC(=O)O)NC(=O)CNC(=O)[C@H]([C@@H](C)O)NC(=O)[C@H](CCC(=O)O)NC(=O)[C@H](C)NC(=O)[C@H](CC(=O)O)NC1=O` [Example 20, {[Acetyl-Cys(&^1)-Asp-Ala-Glu-Thr-Gly-Glu-Cys(&^2)-NH2][&^1(1,2-phenylenediyl)dimethylene&^2]}]: the IC50 was in the range of 1 to 100 nM.

In the case of `CCCCCCCCCCCCCCCCCC(=O)NCCC(=O)N[C@H](C(=O)N[C@H](C(=O)N[C@H]1CSCc2ccccc2CSC[C@@H](C(=O)N[C@H](C(=O)N[C@H](C(N)=O)C(C)C)C(C)C)NC(=O)[C@H](CCC(=O)O)NC(=O)CNC(=O)[C@H]([C@@H](C)O)NC(=O)[C@H](CCC(=O)O)NC(=O)[C@@H]2CCCN2C(=O)[C@H](CC(=O)O)NC1=O)C(C)C)C(C)C` [Example 52, {[Stearyl-βAla-Val-Val-Cys(&^1)-Asp-Pro-Glu-Thr-Gly-Glu-Cys(&^2)-Val-Val-NH2][&^1(1,2-phenylenediyl)dimethylene&^2]}] ({Stearoyl-βAla}-VVCDPETGECVV-NH2; linker 3-10 via oXylylene), the IC50 was 1 to 100 nM.

As to `CCCCCCCCCCCCCCCCCC(=O)N[C@H]1CCCCNC(=O)[C@H]2CCCN2C(=O)[C@H](CC(C)C)NC(=O)[C@@H]2CSCc3ccccc3CSC[C@H](NC(=O)[C@H](CCC(N)=O)NC1=O)C(=O)N[C@@H](CC(=O)O)C(=O)N1CCC[C@H]1C(=O)N[C@@H](CCC(=O)O)C(=O)N[C@@H]([C@@H](C)O)C(=O)NCC(=O)N[C@@H](CCC(=O)O)C(=O)N2` [Example 92, {[Stearyl-Lys(&^1)-Gln-Cys(&^2)-Asp-Pro-Glu-Thr-Gly-Glu-Cys(&^3)-Leu-D-Pro&^1][&^2(1,2-phenylenediyl)dimethylene&^3]}], the IC50 is under 1 nM.

With `CC(C)C[C@H](NC(=O)[C@@H]1CSCc2ccccc2CSC[C@H](NC(=O)[C@H](CCC(N)=O)NC(=O)[C@@H](N)CC(C)C)C(=O)N[C@@H](CC(=O)O)C(=O)N[C@@H](Cc2ccc(F)cc2)C(=O)N[C@@H](CCC(=O)O)C(=O)N[C@@H]([C@@H](C)O)C(=O)NCC(=O)N[C@@H](CCC(=O)O)C(=O)N1)C(=O)N1CCC[C@H]1C(=O)NCCC(=O)N[C@@H](CCCNC(=N)N)C(=O)N[C@@H](CCCCN)C(=O)N[C@@H](CCCCN)C(=O)N[C@@H](CCCNC(=N)N)C(=O)N[C@@H](CCCNC(=N)N)C(=O)N[C@@H](CCC(N)=O)C(=O)N[C@@H](CCCNC(=N)N)C(=O)N[C@@H](CCCNC(=N)N)C(=O)N[C@@H](CCCNC(=N)N)C(N)=O` [Example 71], the IC50 was 1 to 100 nM.
